According to patent publication US20250051762A1, “PLATFORM USING DNA-ENCODED SMALL MOLECULE LIBRARIES AND RNA SELECTION TO DESIGN SMALL MOLECULES THAT TARGET RNA” (University of Florida Research Foundation, Incorporated, priority 2021, published 2025):

Key:
miR-24-2 = experiment: RT-qPCR of mature miR-24-2 in MDA-MB-231 cells; format: cell-based, human
Procedure: Cell lines. Compounds were tested in MDA-MB-231 TNBC cells (HTB-26, ATCC), LNCaP metastatic prostate cancer cells (gifted from Junli Luo lab), MCF-7 (HTB-22, ATCC) breast cancer cells, HeLa cervical adenocarcinoma cells (CCL-2, ATCC), and MCF-10a, a model of healthy breast epithelial cells (CRL-10317, ATCC).
Cell culture and compound treatment. All cells were maintained at 37° C. with 5% CO2. MDA-MB-231 and LNCaP cells were cultured in RPMI 1640 medium with L-glutamine & 25 mM HEPES (Corning) supplemented with 10% (v/v) fetal bovine serum (FBS; Sigma) and 1× (v/v) Antibiotic-Antimycotic solution (Corning). MCF-7 and HeLa cells were cultured in DMEM medium with 4.5 g/L glucose (Corning), supplemented with 10% FBS, 1× (v/v) Glutagro (Corning), and 1× (v/v) Antibiotic-Antimycotic solution. […]
Analysis of mRNA abundance: Each cell line was grown as a monolayer in 12- or 24-well plates and treated as described in “Cell culture and compound treatment”. […] Relative abundance of mature miRNAs was calculated by normalizing to RNU6, and relative abundance for pri-miRNAs and mRNAs was calculated by normalizing to 18S ribosomal RNA, using the AAC, method. […]

MDA-MB-231 cells = experiment: Global proteomics profiling by LC-MS/MS in MDA-MB-231 cells; format: cell-based, human
Procedure: Global proteomics profiling using LC-MS/MS: Treated cell pellets were resuspended in 1×PBS, lysed by sonication, and protein concentration was determined by using a Bradford assay (Bio-Rad). Samples (30 μg) were denatured in 6 M urea in 50 mM NH4HCO3, pH 8, reduced for 30 min with 10 mM TCEP, and alkylated for 30 min in the dark with 25 mM iodoacetamide. Samples were diluted to 2 M urea with 50 mM NH4HCO3, pH 8, and the proteins were digested with trypsin (1 μL of 0.5 μg/μL) in the presence of 1 mM CaCl2) for 12 h at 37° C. The samples were acidified by adding acetic acid to a final concentration of 5% (v/v). After desalting the samples over a self-packed C18 spin column, they were dried and analyzed by LC-MS/MS (see below). The resulting MS data were processed with MaxQuant as described below.
LC-MS/MS analysis: Peptides were dissolved in water containing 0.1% formic acid (FA) and analyzed using an EASY-nLC 1200 nano-UHPLC connected to a Q Exactive HF-X Quadrupole-Orbitrap mass spectrometer (Thermo Scientific). A 50 cm long, 75 μm i.d. chromatography column packed with ReproSil-Pur 120 C18-AQ 2.4 μm beads (Dr. Maisch GmbH) and capped by a 5 μm tip was used. Water with 0.1% FA in water (Buffer A) and 90% acetonitrile (MeCN): 10% water with 0.1% FA (Buffer B) were used as liquid chromatography solvents. A flow rate of 300 nL/min over a 240 min linear gradient (5-35% Buffer B) at 65° C. was used to clute peptides into the mass spectrometer. Data-dependent acquisition (top-20, NCE 28, R=7,500) after full MS scan (R=60,000, m/z 400-1,300) with a dynamic exclusion of 10 seconds was performed. Peptide match to prefer and isotope exclusion were selected and enabled.
MaxQuant analysis: The MaxQuant software (13) (V1.6.1.0) was used to analyzed the MS data and searched against the human proteome (Uniprot) and a common list of contaminants (included in MaxQuant). Peptide search tolerance was set to 20 ppm for the first search and 10 ppm for the main search while 0.02 Da was used for the fragment mass tolerance. The false discovery rate (FDR) for peptides, proteins and sites identification was set to 1%. Peptide length was set to at least 6 amino acids and peptide re-quantification was enabled. Label-free quantification (MaxLFQ) and “match between runs” were activated. Number of peptides per protein was set to ≥2. Searched modifications were methionine oxidation (variable modification) and carbamidomethylation of cysteines (fixed modification).
TargetScan analysis: TargetScanHuman v7.2 was used to predict downstream protein targets of miR-27a-3p (n=1421), miR-23a-3p (n=1342) and miR-24-3p (n=761) containing conserved sites, all proteins with a context score≤0 were included to the analysis per TargetScan recommendation. Approximately 15% of miR-27a-3p targets (220/1421), ˜18% of miR-23a-3p targets (247/1342), and ˜16% of miR-24-3p targets (122/761) were detectable in the global proteomics analysis. […] Targets of miR-23a-3p and miR-24-3p were used as comparison as the two miRNAs are expressed at similar levels as miR-27a-3p in MDA-MB-231 cells and are located in the same cluster. P values between distributions were calculated using a two-tailed Kolmogorov-Smirnov test.

[1] = 100 nM, 3,127 detectable proteins, FDR <5%
[2] = treated vs. vehicle, relative to all proteins

C#CCN(CC(N)=O)C(=O)C[C@H](Cc1c[nH]c2ccccc12)NC(=O)[C@@H]1C[C@H](NC(=O)Cn2c(=O)[nH]c3ccccc3c2=O)CN1 [Compound 9]
effect on levels of mature miR-24-2 (miR-24-2): no effect
number of proteins significantly downregulated (MDA-MB-231 cells; [1]): five
number of proteins significantly upregulated (MDA-MB-231 cells; [1]): 15
upregulated proteins that are putative direct targets of miR-27a (MDA-MB-231 cells; 100 nM, of the 15 upregulated, per TargetScan): Eleven
cumulative distribution of fold change of miR-23a-3p targets (MDA-MB-231 cells; [2]): no significant change
cumulative distribution of fold change of miR-24-3p targets (MDA-MB-231 cells; [2]): no significant change
cumulative distribution of fold change of miR-27a-3p targets (MDA-MB-231 cells; [2]): significant upregulation
